Molecules are shown by their SMILES. Structures can show the parent of a compound that is named as a salt.

For assay [1], the system named is W28729. The assay is described as follows: W28729 expression by real-time quantitative PCR in PBMC treated in vitro. In kind it is cell-based. The following applies: human PBMC in vitro, 10n-M, 4 hours. On the procedure:
Taqman® reactions were prepared as follows: 100 ng total RNA; 25 nM-750 nM Forward Primer; 25 nM-750 nM Reverse Primer; 200 nM-400 nM Taqman® Probe (fluorescent dye labeled oligonucleotide primer); 1X Buffer A (Applied Biosystems, Foster City, Calif., USA); 5.5 mM MgCl2; 300 μM DATP, dGTP, dTTP, dCTP; 1 U Amplitaq Gold; 20 U Superscript 2; 1 U RNase Inhibitor. Real-time PCR was performed using an Applied Biosystems 7700 Sequence Detection System. Conditions were as follows: 48° C. for 20 minutes (reverse transcription), 95° C. for 10 minutes (denaturation and activation of Amplitaq Gold), 40 cycles of PCR (95° C. for 15 seconds, 60° C. for 1 minutes).
(§1) The Sequence Detection System generates a Ct (threshold cycle) value that is used to calculate a concentration for each input messenger RNA template. Messenger RNA levels for each gene or fragment thereof of interest were normalized to GAPDH message levels to compensate for variations in total RNA quantity in the input sample. This was done by generating GAPDH Ct values for each cell line. Ct values for the gene or fragments thereof of interest and GAPDH were inserted into the δδCt equation: Relative Quantity of Nucleic Acid Template=2^δδCt=2^(δCta-δCtb)(δCta=Ct target−Ct GAPDH, δCtb=Ct reference−Ct GAPDH) which was used to calculate a normalized relative message level. […]

The test system of assay [2] is W28729. The assay is described as follows: W28729 expression by real-time quantitative PCR in cultured A2780 tumor cells. In kind it is cell-based, human. The following applies: 20 nM. On the procedure:
Real-Time Quantitative PCR Assays: A Taqman® real-time-PCR fluorogenic assay (Applied Biosystems, Foster City, Calif., USA) was used to quantitate the levels of specific mRNA. The cdk2 inhibitor treated A2780s cells were harvested at approximately 70% confluence and total RNA was prepared using the Qiagen RNeasy 96 Kit.
Taqman® reactions were prepared as follows: 100 ng total RNA; 25 nM-750 nM Forward Primer; 25 nM-750 nM Reverse Primer; 200 nM-400 nM Taqman® Probe (fluorescent dye labeled oligonucleotide primer); 1X Buffer A (Applied Biosystems, Foster City, Calif., USA); 5.5 mM MgCl2; 300 μM DATP, dGTP, dTTP, dCTP; 1 U Amplitaq Gold; 20 U Superscript 2; 1 U RNase Inhibitor. Real-time PCR was performed using an Applied Biosystems 7700 Sequence Detection System. […]
as §1, with “This was done by generating GAPDH Ct values for each cell line.” left out

Assay [3] concerns W28729. Put plainly: Clinical study CA174-001 (1 hr infusion), W28729 expression in patient PBMC by RT-PCR. In kind it is in vivo, human. The following applies: patients. On the procedure: Patient inclusion criteria: The patient inclusion criteria included: primary solid malignancy refractory to current therapy and adequate bone marrow, hepatic, and renal function. Treatments: Two different treatments were undertaken: (i) 174-001 Study: 1 hr infusion of BMS-387032 q 3 wks; and (ii) 174-002 Study: 24 hr infusion of BMS-387032 q 3 wks. The sampling times were pre-dose, and 2, 6, 24 hour post-dose. W28729 Expression Analysis: RT-PCR. Patient blood samples were collected in PAXgene™ Blood Collection Tubes (Qiagen, catalog #762155). Total RNA was isolated following the manufacturer's instructions using a PAXgene™ blood RNA Kit (Qiagen, catalog #762134). W28729 and GAPDH (housekeeping gene) RNA abundance was measured by Taqman assays, using an ABI PRISM 7900 HT Sequence Detection System. W28729 abundance was normalized relative to GAPDH. Primer and probe sequences are as shown below.

A further assay concerns A2780 xenografts. The assay is described as follows: Anti-tumor efficacy in A2780 xenografts (minimum efficacious dose). In kind it is in vivo, mouse. On the procedure: The human ovarian carcinoma xenograft A2780s were maintained in Balb/c nu/nu nude mice. Tumors were propagated as subcutaneous (sc) transplants using tumor fragments obtained from donor mice. For the cdk2 inhibitor treatment, tumors were allowed to grow to the pre-determined size window of approximately 100-200 mg (tumors outside the range were excluded) and animals were evenly distributed to various treatment and control groups (n=6). Treatment of each animal was based on individual body weight. The cdk2 inhibitor was first dissolved in a mixture of Cremophor®/ethanol (50:50). One hour prior to administration, the cdk2 inhibitor was diluted with water so that the dosing solutions contained the specified excipient composition, i.e., Cremophor®/ethanol/water (1:1:8, v/v). The volume of all compounds injected was 0.01 ml/gm of mice. The cdk2 inhibitor was administered as a bolus injection intraperitoneal at doses of 36 and 18 mg/kg. Tumor and plasma were sampled at the time points of 4, 7, and 24 hour post treatment. Plasma sample was frozen immediately at −80° C. for pharmacokinetic analysis, and tumor sample was preserved in RNAase free buffer for pharmacogenomic analysis. […] At the minimum efficacious dose (MED) of 18 mg/kg/day, the induction was sustained for more than 6 hours. […]

For `CC(C)(C)c1cnc(CSc2cnc(NC(=O)C3CCNCC3)s2)o1` [cdk2 inhibitor, N-5-[[5-(1,1-Dimethylethyl)-2-oxazolyl]methyl]thio]-2-thiazolyl-4-piperidinecarboxamide, 0.5-L-tartaric acid salt], the W28729 expression change entry in the assay on W28729 [1] was “Upregulation of W28729 expression”. Moreover, in the assay with W28729 [2], the “induction of W28729” value is on record as “induction of W28729 occurred” and the “time after treatment at which W28729 induction was detected” value amounted to 1 h. The “time of return of W28729 to baseline levels” value in the assay with W28729 [3] (1 hour infusion) was no more than 6 h. In addition, the “W28729 induction in PBMC” value with W28729 [3] (1 hour infusion, at 2 hours) is given as “transient induction of W28729”. For the same molecule, the “relationship between W28729 gene induction and dose or exposure (AUC)” value in the assay on W28729 [3] (CA174-001) was “linear relationship”. In addition, the “minimum efficacious dose (MED)” value in the assay with A2780 xenografts (bolus i.p.) is given as 18 mg/kg/day. Besides, the minimum efficacious dose with A2780 xenografts (infusion regimen) stood at 40 mg/kg.
